Data on 19 molecules can be found in patent US6403626B1, “Benzimidazole derivatives” (Synaptic Pharmaceutical Corporation, priority 1994, dated 2002).

In assay [1] the target is T1, α1C Human Adrenergic Receptor (Homo sapiens, UniProt P35348).
T1 construct: expressed in transfected cells; host or cells: LM(tk-) cells
T1 sequence (P35348 1-466): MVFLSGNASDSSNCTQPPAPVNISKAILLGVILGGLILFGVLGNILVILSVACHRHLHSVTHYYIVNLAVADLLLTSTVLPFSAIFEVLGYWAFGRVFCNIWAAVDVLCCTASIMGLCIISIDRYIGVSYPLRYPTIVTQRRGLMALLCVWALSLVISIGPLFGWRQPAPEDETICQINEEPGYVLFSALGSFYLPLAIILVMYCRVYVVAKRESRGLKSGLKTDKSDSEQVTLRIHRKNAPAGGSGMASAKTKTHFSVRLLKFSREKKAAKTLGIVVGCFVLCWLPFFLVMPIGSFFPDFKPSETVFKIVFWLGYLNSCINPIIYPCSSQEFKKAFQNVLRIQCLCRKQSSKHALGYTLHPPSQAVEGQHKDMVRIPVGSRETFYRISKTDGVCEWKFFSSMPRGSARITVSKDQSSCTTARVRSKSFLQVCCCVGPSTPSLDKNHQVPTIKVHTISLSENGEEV
The assay can be described thus: Equilibrium competition binding, [3H] prazosin, membranes of transfected LM(tk-) cells. The method, then:
Binding and functional assays were performed using stably transfected human alpha adrenergic receptors. Equilibrium competition binding assays were performed with membrane preparations from cultured LM(tk-) cells stably transfected with the cloned human adrenoceptor subtypes except for α2b, which was expressed in Y-1 cells, using [^3H] prazosin for α1 receptors and [^3H] rauwolscine for α2 receptors.
Transfected cells from culture flasks were scraped into 5 ml of 5 mM Tris-HCl, 5 mM EDTA, pH 7.5, and lysed by sonication. The cell lysates were centrifuged at 1000 rpm for 5 min at 4° C., and the supernatant was centrifuged at 30,000×g for 20 min at 4° C. The pellet was suspended in 50 mM Tris-HCl, 1 mM MgCl2, and 0.1% ascorbic acid at pH 7.5. Binding of α2 antagonist [^3H] rauwolscine ([…]) to membrane preparations of LM(tk-) cells was done in a final volume of 0.25 ml and incubated at 37° C. for 20 min. Nonspecific binding was determined in the presence of 10 μM phentolamine. The reaction was stopped by filtration through GF/B filters using a cell harvester.
The construct involved ligation three partial overlapping fragments: a 5′ 0.6 kb HincII genomic clone, a central 1.8 EcoRI hippocampal cDNA clone, and a 3′ 0.6 Kb PstI genomic clone. The hippocampal cDNA fragment overlaps with the 5′ and 3′ genomic clones so that the HincII and PstI sites at the 5 and 3′ ends of the cDNA clone, respectively, were utilized for ligation. This full-length clone was cloned into the KpnI site of the expression vector, using the 5′ and 3′ KpnI sites of the fragment, derived from vector (i.e., pBluescript) and 3′-untranslated sequences, respectively. Stable cell lines were selected as described above.

In assay [2] the target is T2, α2C Human Adrenergic Receptor (Homo sapiens, UniProt P18825).
T2 sequence (P18825 1-462): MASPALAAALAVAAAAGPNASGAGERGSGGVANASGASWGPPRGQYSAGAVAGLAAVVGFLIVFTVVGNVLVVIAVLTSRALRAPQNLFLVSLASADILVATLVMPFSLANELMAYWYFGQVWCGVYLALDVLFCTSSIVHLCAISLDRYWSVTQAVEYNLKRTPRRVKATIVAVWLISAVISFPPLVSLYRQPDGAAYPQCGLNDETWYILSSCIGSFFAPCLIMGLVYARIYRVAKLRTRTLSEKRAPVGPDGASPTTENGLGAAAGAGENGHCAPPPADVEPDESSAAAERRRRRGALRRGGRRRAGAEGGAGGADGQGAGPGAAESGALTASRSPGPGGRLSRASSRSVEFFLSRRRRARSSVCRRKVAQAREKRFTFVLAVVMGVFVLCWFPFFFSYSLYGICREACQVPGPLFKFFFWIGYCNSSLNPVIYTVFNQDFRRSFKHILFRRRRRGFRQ
Put plainly: Equilibrium competition binding, [3H] rauwolscine, membranes of transfected LM(tk-) cells.

Assay [3] deals with T3, α2B Human Adrenergic Receptor (Homo sapiens, UniProt P18089).
T3 construct: expressed in transfected cells; host or cells: Y-1 cells
T3 sequence (P18089 1-450): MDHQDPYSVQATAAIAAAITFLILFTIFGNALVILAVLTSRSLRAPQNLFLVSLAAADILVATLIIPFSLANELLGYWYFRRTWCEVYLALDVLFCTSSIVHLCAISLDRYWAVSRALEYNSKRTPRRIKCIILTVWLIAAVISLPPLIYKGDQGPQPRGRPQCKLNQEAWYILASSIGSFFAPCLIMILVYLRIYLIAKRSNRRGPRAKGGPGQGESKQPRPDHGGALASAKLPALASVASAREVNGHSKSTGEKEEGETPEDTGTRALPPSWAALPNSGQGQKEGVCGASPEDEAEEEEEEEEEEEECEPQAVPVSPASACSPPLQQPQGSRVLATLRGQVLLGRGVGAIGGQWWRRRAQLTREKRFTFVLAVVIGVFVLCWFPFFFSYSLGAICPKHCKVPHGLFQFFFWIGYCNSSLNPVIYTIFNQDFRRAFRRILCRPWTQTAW
The assay can be described thus: Equilibrium competition binding, [3H] rauwolscine, membranes of transfected Y-1 cells.

The target in assay [4] is T4, α1B Human Adrenergic Receptor (Homo sapiens, UniProt P35368).
T4 construct: The entire coding region of α1B(1563 bp); expressed in transfected cells; host or cells: LM(tk-) cells
T4 sequence (P35368 1-520): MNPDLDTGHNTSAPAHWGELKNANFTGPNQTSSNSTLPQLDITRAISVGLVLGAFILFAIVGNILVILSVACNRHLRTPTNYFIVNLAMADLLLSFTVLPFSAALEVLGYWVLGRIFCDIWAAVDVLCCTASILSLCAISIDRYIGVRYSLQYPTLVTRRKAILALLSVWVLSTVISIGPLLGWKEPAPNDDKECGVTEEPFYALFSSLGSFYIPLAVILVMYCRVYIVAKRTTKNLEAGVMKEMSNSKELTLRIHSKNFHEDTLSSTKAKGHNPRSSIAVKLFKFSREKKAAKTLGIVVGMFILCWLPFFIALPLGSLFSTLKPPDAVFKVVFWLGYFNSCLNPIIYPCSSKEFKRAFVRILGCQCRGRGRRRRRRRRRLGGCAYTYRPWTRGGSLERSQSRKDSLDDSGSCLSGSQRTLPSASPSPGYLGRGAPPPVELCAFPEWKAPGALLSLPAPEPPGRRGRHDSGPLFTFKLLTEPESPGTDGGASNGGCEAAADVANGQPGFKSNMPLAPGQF
Put plainly: Equilibrium competition binding, [3H] prazosin, membranes of transfected LM(tk-) cells.

The mark [5] stands for this setting: cloned human receptor, [3H] prazosin, read-out: pKi Alpha-1 C (converted).
Setting [6] is: cloned human receptor, [3H] prazosin, read-out: pKi Alpha-1 B (converted).
The mark [7] stands for this setting: cloned human receptor, [3H] rauwolscine, read-out: pKi Alpha-2 B (converted).
Where [8] appears, read: cloned human receptor, [3H] prazosin.
The mark [9] stands for this setting: cloned human receptor, [3H] rauwolscine.

Where two headings read alike, the source gives them in different places.

For the molecule `Cn1cnc2c(Br)c(NC3=NCCN3)ccc21` [Example 10, 1-Methyl-4-bromo-5-(2-imidazolin-2-ylamino)Benzimidazole], the Ki in assay [1] (setting [5]) is 851 nM; in assay [2] it was 15.5 nM; in assay [3], 28.2 nM; in assay [4] (setting [6]), 3800 nM.
For `Cn1cnc2cc(NC3=NCCN3)ccc21` [Example 9, 1-Methyl-5-(2-imidazolin-2-ylamino)Benzimidazole], the Ki is 6760 nM in assay [1] (setting [5]), 46.8 nM in assay [3] (setting [7]) and 13500 nM in assay [4] (setting [6]).
Consider `c1nc2ccc(NC3=NCCN3)cc2[nH]1` [Example 1, 5-(2-Imidazolin-2-ylamino)Benzimidazole], for which the Ki was 5250 nM in assay [1] (setting [5]), 70.8 nM in assay [2], 74.1 nM in assay [3] and 24500 nM in assay [4] (setting [6]).
Take `OCCn1cnc2c(Br)c(NC3=NCCN3)ccc21` [Example 38, 1-(2-Hydroxyethyl)-4-bromo-5-(2-imidazolin-2-ylamino)Benzimidazole]: the Ki was 6760 nM in assay [1], 1290 nM in assay [2], 525 nM in assay [3] (setting [7]) and 17400 nM in assay [4].
As for `Cc1c(N=C2NCCN2)ccc2[nH]cnc12` [Example 4, 4-Methyl-5-(2-imidazolin-2-ylamino)Benzimidazole], the Ki is 724 nM in assay [1] (setting [5]), 25.7 nM in assay [2], 9.12 nM in assay [3] (setting [7]) and 2750 nM in assay [4] (setting [6]).
For `Cn1cnc2ccc(NC3=NCCN3)c(Br)c21` [Example 12, 3-Methyl-4-bromo-5-(imidazolin-2-ylamino)Benzimidazole], the “pKi Alpha-1 C” value in assay [1] (setting [8]) was found to be 6.46. Besides, the “pKi Alpha-2 C” value in assay [2] (setting [9]) is reported as 7.59. In assay [3] (setting [9]), the “pKi Alpha-2 B” value was found to be 7.84. Moreover, the “pKi Alpha-1 B” value in assay [4] (setting [8]) was 6.46.
On to `CCc1nc2ccc(NC3=NCCN3)c(Br)c2[nH]1` [Example 43, 2-Ethyl-4-bromo-5-(2-imidazolin-2-ylamino)Benzimidazole], for which the Ki in assay [1] (setting [5]) was 2140 nM; in assay [3] it was 33.9 nM; in assay [4] (setting [6]), 6920 nM.
For the molecule `Clc1cc(NC2=NCCN2)cc2[nH]cnc12` [Example 53, 7-Chloro-5-(2-imidazolin-2-ylamino)Benzimidazole], the Ki in assay [1] (setting [5]) is 1000 nM; in assay [2] it was 89.1 nM; in assay [3] it was 18.2 nM; in assay [4] (setting [6]), 1910 nM.
Consider `Brc1c(NC2=NCCN2)ccc2nc[nH]c12` [Example 2, 4-Bromo-5-(2-imidazolin-2-ylamino)Benzimidazole], for which the Ki in assay [1] was 1700 nM; in assay [2], 97.7 nM; in assay [3] (setting [7]), 20.4 nM; in assay [4], 5890 nM.
In the case of `Ic1c(NC2=NCCN2)ccc2nc[nH]c12` [Example 5, 4-Iodo-5-(2-imidazolin-2-ylamino)Benzimidazole], the Ki in assay [1] (setting [5]) was 2240 nM; in assay [2] it was 24 nM; in assay [3], 30.9 nM; in assay [4] (setting [6]) it was 1820 nM.
In the case of `Clc1c(NC2=NCCN2)ccc2nc[nH]c12` [Example 3, 4-Chloro-5-(2-imidazolin-2-ylamino)Benzimidazole], the Ki in assay [1] (setting [5]) is 1910 nM; in assay [2], 100 nM; in assay [3] (setting [7]) it was 15.5 nM; in assay [4] (setting [6]), 8130 nM.
As to `COc1ccc(Cn2cnc3c(Br)c(NC4=NCCN4)ccc32)cc1` [Example 36, 1-(4-Methoxybenzyl)-4-bromo-5-(2-imidazolin-2-ylamino)Benzimidazole], the Ki is 6460 nM in assay [1], 166 nM in assay [2], 107 nM in assay [3] (setting [7]) and 11000 nM in assay [4].
As to `Cc1nc2ccc(NC3=NCCN3)c(Br)c2[nH]1` [Example 42, 2-Methyl-4-bromo-5-(2-imidazolin-2-ylamino)Benzimidazole], the Ki in assay [1] (setting [5]) is 8130 nM; in assay [2] it was 214 nM; in assay [3], 23.4 nM; in assay [4] (setting [6]) it was 8510 nM.
As for `CCCCc1c(NC2=NCCN2)ccc2nc[nH]c12` [Example 8, 4-n-Butyl-5-(2-imidazolin-2-ylamino)Benzimidazole], the Ki was 2000 nM in assay [1] (setting [5]), 50.1 nM in assay [3] (setting [7]) and 2630 nM in assay [4] (setting [6]).
As for `CCCCc1cc(NC2=NCCN2)cc2[nH]cnc12` [Example 56, 7-Butyl-5-(2-imidazolin-2-ylamino)Benzimidazole], the Ki was 589 nM in assay [1] (setting [5]), 182 nM in assay [3] (setting [7]) and 5130 nM in assay [4] (setting [6]).
With `FC(F)(F)c1nc2ccc(NC3=NCCN3)c(Br)c2[nH]1` [Example 46, 2-Trifluoromethyl-4-bromo-5-(2-imidazolin-2-ylamino)Benzimidazole], the Ki in assay [1] (setting [5]) was 10700 nM; in assay [3] it was 105 nM; in assay [4] (setting [6]), 28200 nM.
As for `Brc1c(NC2=NCCN2)ccc2nc(C(c3ccccc3)c3ccccc3)[nH]c12` [Example 48, 2-Diphenylmethyl-4-bromo-5-(2-imidazolin-2-ylamino)Benzimidazole], the Ki in assay [1] (setting [5]) was 120 nM; in assay [2], 245 nM; in assay [3] (setting [7]), 661 nM; in assay [4] (setting [6]), 49 nM.
As for `CCCc1c(NC2=NCCN2)ccc2nc[nH]c12` [Example 7, 4-n-Propyl-5-(2-imidazolin-2-ylamino)Benzimidazole], the figures for the Ki in assay [1] (setting [5]), in assay [2] and in assay [4] (setting [6]) were 2000 nM, 41.7 nM and 1230 nM, respectively.
Consider `CC(C)(C)c1nc2ccc(NC3=NCCN3)c(Br)c2[nH]1` [Example 45, 2-tert-Butyl-4-bromo-5-(2-imidazolin-2-ylamino)Benzimidazole], for which the Ki in assay [1] (setting [5]) is 2190 nM; in assay [3] it was 83.2 nM; in assay [4] (setting [6]), 11500 nM.
